Measured values as given in US7235557B2, “Compounds and their uses” (MGI GP, Inc., priority 2000, dated 2007).
Where “and” joins values, the source holds several entries; their conditions need not be identical. Equal entries are not always repeated.

Assays:
focal cerebral ischemia = test: Focal cerebral ischemia (MCA cauterization with temporary bilateral CCA occlusion), infarct volume; assay type: in vivo, male Long-Evans rats; details: 24 h, mean±SD
Description: Focal cerebral ischemia is produced by cauterization of the right distal MCA (middle cerebral artery) with bilateral temporary common carotid artery occlusion in male Long-Evans rats for 90 minutes. All procedures performed on the animals are approved by the University Institutional Animal Care and Use Committee of the University of Pennsylvania. A total of 42 rats (weights: 230–340 g) obtained from Charles River were used in this study. The animals fasted overnight with free access to water prior to the surgical procedure.
Two hours prior to MCA occlusion, varying amounts (control, n=14; 5 mg/kg, n=7; 10 mg/kg, n=7; 20 mg/kg, n=7; and 40 mg/kg, n=7) of the compound, 3,4-dihydro-5-[4-(1-piperidinyl)-butoxy]-1(2H)-isoquinolinone (“DPQ”) were dissolved in dimethyl sulfoxide (DMSO) using a sonicator. A volume of 1.28 ml/kg of the resulting solution was injected intraperitoneally into […].
Focal cerebral ischemia was produced by cauterization of the distal portion of the right MCA with bilateral temporary common carotid artery (CCA) occlusion by the procedure of Chen et al., “A Model of Focal Ischemic Stroke in the Rat: Reproducible Extensive Cortical Infarction”, Stroke 17:738–43 (1986) and/or Liu et al., “Polyethylene Glycol-conjugated Superoxide Dismutase and Catalase Reduce Ischemic Brain Injury”, Am. J. Physiol. 256:H589–93 (1989), both of which are hereby incorporated by reference.
Specifically, bilateral CCA's were isolated, and loops made from polyethylene (PE-10) catheter were carefully passed around the CCA's for later remote occlusion. The incision made previously for placement of the laser doppler probe was extended to allow observation of the rostral end of the zygomatic arch at the fusion point using a dental drill, and the dura mater overlying the MCA was cut. […] The burr hole was covered with a small piece of Gelform, and the wound was sutured to maintain the brain temperature within the normal or near-normal range.
After 90 minutes of occlusion, the carotid loops were released, the tail arterial catheter was removed, and all of the wounds were sutured. Gentamicin sulfate (10 mg/ml) was topically applied to the wounds to prevent infection. […]
Two hours after MCA occlusion, the animals were given the same doses of the PARP inhibitor as in the pre-treatment. […] To avoid artifacts due to edema, the damaged area was calculated by subtracting the area of the normal tissue in the hemisphere ipsilateral to the stroke from the area of the hemisphere contralateral to the stroke, by the method of Swanson et al., “A Semiautomated Method for Measuring Brain Infarct Volume”, J. Cereb. […] The total volume of infarction was calculated by summation of the damaged volume of the brain slices.

PARP = PARP (Homo sapiens, UniProt P09874); details: read-out: IC50 for inhibiting PARP; reported by Suto et al.; cited from earlier work
[1] = system: MSU crystal induced neutrophil migration; test: MSU crystal-induced neutrophil recruitment (peritonitis, gout model); assay type: in vivo, Swiss albino mice
Description: Male outbread Swiss albino mice (20–22 g body weight) were purchased from Banton and Kingsman (T.O. stain; Hull, Humberside) and maintained on a standard chow pellet diet with tap water ad libitum and a 12:00 h light/dark cycle. All animals were housed for 1 week prior to experimentation to allow body weight to reach 28–30 g.
1,11b-dihydrobenzopyrano[4,3,2-de]isoquinolin-1-one, as an example PARP inhibitor, was dissolved in 100% DMSO at room temperature at a concentration of 45 mg in 2 ml. The compound was then injected into the peritoneal cavity, so as each mouse received a single dose corresponding to 45 mg/2 ml/kg (e.g. 60 μl for a mouse of 30 g). Control mice received DMSO at 2 ml/kg i.p. A third group of mice which were left untreated were added to control for potential effects of the vehicle. The study involved therefore, the following three groups: group A, untreated mice, n=6, group B, DMSO-treated mice, n=8, and group C, mice treated with 1,11b-dihydrobenzopyrano[4,3,2-de]isoquinolin-1-one, n=8.
MSU crystal-induced neutrophil recruitment was tested as follows. In all cases, mice were treated 1 h after the treatment noted above, with MSU crystals. A homogenous suspension of MSU crystals was obtained by a 30 min rotation. Peritonitis was induced by injection of 3 mg MSU crystals in 0.5 ml PBS (0.1 M, pH 7.4), and the recruitment of neutrophils into the cavity evaluated at the 6 h time point (Getting et al., 1997, J. Pharmacol. Exp. Ther. 283: 123–130). […]
An aliquot (100 μl) of the lavage fluid was then diluted 1:10 in Turk's solution (0.01% crystal violet in 3% acetic acid). The samples were then vortexed and 10 μl of the stained cell solution were placed in a Neubauer haematocymometer and neutrophils numbers counted using a light microscope (Olympus B061). […]
Data are shown for single mice, and also shown as mean±S.E. of (n) mice per group. Statistical differences were determined by ANOVA, plus Bonferroni test A P value<0.05 was taken as significant.

[2] = system: infarct size caused by ischemia and reperfusion of the heart; details: rabbits, cited from earlier work
[3] = target: T1, purified recombinant human PARP (Homo sapiens, UniProt P09874); test: PARP enzyme assay (IC50); assay type: biochemical; details: approximate IC50 values, [3H]NAD, read-out: IC50
T1 construct: purchased Trevigan (Gaithersburg, Md.)
Description: The reaction is initiated by adding enzyme and incubating the mixture at 25° C. After 2 minutes of incubation, the reaction is terminated by adding 500 microliters of ice cold 30% (w/v) trichloroacetic acid. The precipitate formed is transferred onto a glass fiber filter Packard Unifilter-GF/C) and washed three times with 70% ethanol. After the filter is dried, the radioactivity is determined by scintillation counting.

T1 sequence (P09874 whole entry): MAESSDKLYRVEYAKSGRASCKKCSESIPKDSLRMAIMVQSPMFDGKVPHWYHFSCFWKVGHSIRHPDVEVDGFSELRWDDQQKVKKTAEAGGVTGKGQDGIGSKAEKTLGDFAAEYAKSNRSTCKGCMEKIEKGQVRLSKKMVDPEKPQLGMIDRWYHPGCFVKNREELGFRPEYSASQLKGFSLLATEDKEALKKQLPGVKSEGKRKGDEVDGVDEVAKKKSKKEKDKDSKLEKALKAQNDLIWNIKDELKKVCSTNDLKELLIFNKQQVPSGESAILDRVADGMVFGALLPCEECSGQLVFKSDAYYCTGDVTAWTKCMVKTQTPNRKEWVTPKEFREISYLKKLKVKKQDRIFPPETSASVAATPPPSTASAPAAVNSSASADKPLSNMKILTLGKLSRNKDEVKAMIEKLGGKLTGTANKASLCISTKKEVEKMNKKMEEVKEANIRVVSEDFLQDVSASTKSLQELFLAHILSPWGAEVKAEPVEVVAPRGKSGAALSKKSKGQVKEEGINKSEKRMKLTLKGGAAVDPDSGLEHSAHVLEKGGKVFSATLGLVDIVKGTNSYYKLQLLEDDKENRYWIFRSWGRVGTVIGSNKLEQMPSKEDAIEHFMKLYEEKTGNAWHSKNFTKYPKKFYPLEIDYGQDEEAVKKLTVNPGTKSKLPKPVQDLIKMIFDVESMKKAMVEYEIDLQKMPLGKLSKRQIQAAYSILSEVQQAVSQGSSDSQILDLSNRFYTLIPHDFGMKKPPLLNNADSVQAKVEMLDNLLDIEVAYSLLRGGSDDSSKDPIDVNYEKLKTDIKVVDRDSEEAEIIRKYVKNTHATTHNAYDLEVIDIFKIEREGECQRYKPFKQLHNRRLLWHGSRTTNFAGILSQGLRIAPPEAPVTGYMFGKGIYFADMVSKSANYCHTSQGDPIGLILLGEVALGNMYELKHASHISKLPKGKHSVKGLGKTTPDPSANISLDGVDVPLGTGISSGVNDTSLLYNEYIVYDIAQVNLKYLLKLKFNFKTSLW
Chain of PARP (P09874 whole entry): as above

SMILES | IC50 [3] | other results
O=C1NCCc2c(OCCCCN3CCCCC3)cccc21 [DPQ, 3,4-dihydro-5-[4-(1-piperidinyl)-butoxy]-1(2H)-isoquinolinone] |  | damaged volume (infarct volume) (focal cerebral ischemia; 5 mg/kg i.p. 2 h before and 2 h after MCA occlusion, control 165.2±34.0): 106.7±23.2 mm^3; damaged volume (infarct volume) (focal cerebral ischemia; 10 mg/kg i.p. 2 h before and 2 h after MCA occlusion, control 165.2±34.0): 76.4±16.8 mm^3; damaged volume (infarct volume) (focal cerebral ischemia; 20 mg/kg i.p. 2 h before and 2 h after MCA occlusion, control 165.2±34.0): 110.2±42.0 mm^3; damaged volume (infarct volume) (focal cerebral ischemia; 40 mg/kg i.p. 2 h before and 2 h after MCA occlusion, not significant vs control): 135.6±44.8 mm^3
O=C1NCCc2c(OCCCCN3CCCCC3)cccc21 [3,4-dihydro-5-[4-(1-piperidinyl)butoxy]-1(2H)-isoquinolinone] |  | IC50 (PARP): 40 nM
O=C1N=Cc2cccc3c2C1c1ccccc1O3 (centres unmarked) [1,11b-dihydrobenzopyrano[4,3,2-de]isoquinolin-1-one] |  | inhibition of cell influx vs. the vehicle group ([1]; 45 mg/kg i.p., 6 h): 55%; Neutrophil Numbers (single mice) ([1]; group C, 45 mg/kg i.p. 1 h prior to 3 mg MSU crystals, 6 h time-point, one value per mouse, 45 mg/kg): 2.4 10^6 per mouse (2×) and 3.0 10^6 per mouse (2×) and 2.7 10^6 per mouse and 2.1 10^6 per mouse (2×) and 5.1 10^6 per mouse; Neutrophils (10^6 per mouse) ([1]; group C, 45 mg/kg i.p., MSU crystals (3 mg), 6 h, mean ± S.E. of (n) mice, vehicle 6.30 ± 0.33): 2.85 ± 0.34 (8)* 10^6 per mouse
Oc1cccc2c(O)nccc12 [1,5-dihydroxyisoquinoline] |  | reduction in infarct size ([2]; 1 mg/kg): 38–48%
CN(C)CCCN(C)Cc1nc2cccc3c2n1CCNC3=O | 473 nM | 
COC1CNC(=O)c2cccc3c2c1cn3C (centres unmarked) | 4600 nM | 
O=C1NCCn2c(-c3ccc(-c4ccc(Cl)cc4)o3)nc3cccc1c32 | 960 nM | 
Cn1c(-c2ccccc2)c2c3c(cccc31)C(=O)NCC2=O | 58 nM | 
NC(=O)c1cccc(N)c1 [3-amino-benzamide] |  | reduction in infarct size in the heart ([2]; single injection 10 mg/kg, one minute before occlusion or before reperfusion): 32–42%
O=C1NCCn2c(-c3ccco3)nc3cccc1c32 | 108 nM | 
O=C1NCCc2c(Br)[nH]c3cccc1c23 | 51 nM | 
CCCCN(CCCC)Cc1nc2cccc3c2n1CCNC3=O | 1750 nM | 
CCN1CCN(CC2=NNC(=O)c3cccc4[nH]cc2c34)CC1 | 60 nM | 
O=C1NCCn2c(-c3cccc(C(=O)N4CC5CC4CN5Cc4ccccc4)c3)nc3cccc1c32 (centres unmarked) | 405 nM | 
Cn1cc2c3c(cccc31)C(=O)NN=C2 | 146 nM | 
O=C1NCCn2c(C=C(c3ccccc3)c3ccccc3)nc3cccc1c32 | 330 nM | 
O=c1[nH]c2cc(Cl)cnc2c2ccccc12 | 292 nM | 
O=c1[nH]c2ccc(N3CCN(CC4CCCO4)CC3)nc2c2ccccc12 (centres unmarked) | 179 nM | 
O=C1NCC(c2ccc(F)cc2)c2c[nH]c3cccc1c23 (centres unmarked) | 427 nM | 
O=C1NCCn2c(-c3cccc(Cl)c3)nc3cccc1c32 | 80 nM | 
O=C1NCCn2c(-c3ccc(F)cc3)nc3cccc1c32 | 201 nM | 
CN(C)CCCOc1ccc(-c2nc3cccc4c3n2CCNC4=O)cc1 | 237 nM | 
O=C1NCCn2c(CN(Cc3ccccc3)Cc3ccccc3)nc3cccc1c32 | 218 nM | 
CC(C)(C)OC(=O)N1CCN(C(=O)c2cccc(-c3nc4cccc5c4n3CCNC5=O)c2)CC1 | 583 nM | 
O=C1NN=C(Cc2ccccc2)c2c[nH]c3cccc1c23 | 64 nM | 
O=C(NCCN1CCCC1)c1cccc(-c2nc3cccc4c3n2CCNC4=O)c1 | 321 nM | 
O=C1NCCn2c(/C=C/c3ccccc3)nc3cccc1c32 | 71 nM | 
